From patent publication US20020137929A1, “1 - (3-heterocyclylphenyl) isothiourea, -isourea, -guanidine and -amidine herbicidal agents” (Intellectual Property Department, BASF Aktiengesellschaft, priority 1998, published 2002)

What was measured:
CYPIR (Rice Flatsedge) = assay: Preemergence weed control under flooded paddy conditions; format: in vivo, Cyperus iria; settings: rated 3-4 weeks after treatment
In short: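 Herbicidal effect is scored visually on a 0-9 scale against an untreated control, three to four weeks after compounds are pipetted into the flood water (1.5 to 3 cm deep) over seeds planted in silt loam at 0.5 cm depth. Rates: about 0.0313 to 0.500 kg/ha.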

[1] = system: TRZAWR (Wheat, Winter, cv Riband); assay: Preemergence herbicidal evaluation; format: in vivo, Triticum aestivum; settings: rated 4-5 weeks after treatment
In short: (§1)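 Herbicidal effect scored visually, 0-9, at 4 to 5 weeks against a control; compound applied preemergence by aqueous acetone spray to seeded soil at about 0.0156 to 0.500 kg/ha.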

ORYSAT (Rice, Tebonnet) [2] = assay: Postemergence herbicidal evaluation; format: in vivo, Oryza sativa, (L.) Tebonnet; settings: for Herbicidal rating ORYSAT: postemergence
In short: (§2)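 Visual 0–9 rating versus control (stand, vigor, malformation, size, chlorosis, overall appearance), taken four to five weeks post-spray. Two-week-old seedlings received roughly 0.0156–0.500 kg/ha active in acetone/water (50/50) with 0.5% TWEEN 20 via nozzle at 40 psi.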

[3] = system: SAGPY (Arrowhead (Pygmaea)); assay: Preemergence weed control under flooded paddy conditions; format: in vivo, Sagittaria pygmaea; settings: rated 3-4 weeks after treatment
In short: (§3)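 Values are visual 0-9 scores against a control for a preemergence application into paddy flood water at about 0.0313 to 0.500 kg/ha. Greenhouse duration was three to four weeks.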

SETVI (Foxtail, Green) = assay: Preemergence herbicidal evaluation; format: in vivo, Setaria viridis; settings: rated 4-5 weeks after treatment
In short: as §1

ZEAMX (Corn, Field) = assay: Preemergence herbicidal evaluation; format: in vivo, Zea mays; settings: rated 4-5 weeks after treatment
In short: as §1

[4] = system: CHEAL (Lambsquarters, Common); assay: Postemergence herbicidal evaluation; format: in vivo, Chenopodium album; settings: for Herbicidal rating CHEAL: postemergence
In short: as §2

GALAP (Galium) = assay: Preemergence herbicidal evaluation; format: in vivo, Galium aparine; settings: rated 4-5 weeks after treatment
In short: as §1

ECHCG (Barnyardgrass) = assay: Postemergence herbicidal evaluation; format: in vivo, Echinochloa crus-galli; settings: for Herbicidal rating ECHCG: postemergence
In short: as §2

[5] = system: GLXMAW (Soybean, Williams); assay: Preemergence herbicidal evaluation; format: in vivo, Glycine max, (L.) Merr. cv Williams; settings: rated 4-5 weeks after treatment
In short: as §1

ORYSAT (Rice, Tebonnet) [6] = assay: Preemergence herbicidal evaluation; format: in vivo, Oryza sativa, (L.) Tebonnet; settings: rated 4-5 weeks after treatment
In short: as §1

CASOB (Sicklepod) = assay: Postemergence herbicidal evaluation; format: in vivo, Cassia obtusifolia; settings: for Herbicidal rating CASOB: postemergence
In short: as §2

MOOVA (Monochoria) = assay: Preemergence weed control under flooded paddy conditions; format: in vivo, Monochoria vaginalis; settings: rated 3-4 weeks after treatment
In short: as §3

## CCOC(=O)CN1C(=O)C(CC(=O)O)SC1=Nc1cc(N2C(=O)CC(C(F)(F)F)CC2=O)c(F)cc1Cl (stereo not drawn) [Compound 170, 2-{{2-Chloro-5-[2,6-dioxo-4-(trifluoromethyl)-piperidino]-4-fluorophenyl}imino}-4-oxo-3,5-thiazolidinediacetic acid, 3-ethyl ester]
CYPIR (Rice Flatsedge); 0.0313 kg/ha
  herbicidal effect rating, CYPIR: 9.0
CYPIR (Rice Flatsedge); 0.0625 kg/ha
  herbicidal effect rating, CYPIR: 9.0
CYPIR (Rice Flatsedge); 0.1250 kg/ha
  herbicidal effect rating, CYPIR: 9.0
CYPIR (Rice Flatsedge); 0.2500 kg/ha
  herbicidal effect rating, CYPIR: 9.0
[1]; 0.0156 kg/ha
  Preemergence herbicidal rating TRZAWR: 0.0
[1]; 0.0313 kg/ha
  Preemergence herbicidal rating TRZAWR: 6.0
[1]; 0.0625 kg/ha
  Preemergence herbicidal rating TRZAWR: 7.0
[1]; 0.1250 kg/ha
  Preemergence herbicidal rating TRZAWR: 8.0
[1]; 0.2500 kg/ha
  Preemergence herbicidal rating TRZAWR: 9.0
ORYSAT (Rice, Tebonnet) [2]; rate 0.0156 kg/ha
  Herbicidal rating ORYSAT: 2.0
ORYSAT (Rice, Tebonnet) [2]; rate 0.0313 kg/ha
  Herbicidal rating ORYSAT: 2.0
ORYSAT (Rice, Tebonnet) [2]; rate 0.0625 kg/ha
  Herbicidal rating ORYSAT: 2.5
[3]; 0.0313 kg/ha
  herbicidal effect rating, SAGPY: 5.0
[3]; 0.0625 kg/ha
  herbicidal effect rating, SAGPY: 9.0
[3]; 0.1250 kg/ha
  herbicidal effect rating, SAGPY: 8.0
[3]; 0.2500 kg/ha
  herbicidal effect rating, SAGPY: 9.0
SETVI (Foxtail, Green); 0.0156 kg/ha
  Preemergence herbicidal rating SETVI: 9.0
SETVI (Foxtail, Green); 0.0313 kg/ha
  Preemergence herbicidal rating SETVI: 9.0
SETVI (Foxtail, Green); 0.0625 kg/ha
  Preemergence herbicidal rating SETVI: 9.0
SETVI (Foxtail, Green); 0.1250 kg/ha
  Preemergence herbicidal rating SETVI: 9.0
SETVI (Foxtail, Green); 0.2500 kg/ha
  Preemergence herbicidal rating SETVI: 9.0
ZEAMX (Corn, Field); 0.0156 kg/ha
  Preemergence herbicidal rating ZEAMX: 5.0
ZEAMX (Corn, Field); 0.0313 kg/ha
  Preemergence herbicidal rating ZEAMX: 7.0
ZEAMX (Corn, Field); 0.0625 kg/ha
  Preemergence herbicidal rating ZEAMX: 8.0
ZEAMX (Corn, Field); 0.1250 kg/ha
  Preemergence herbicidal rating ZEAMX: 9.0
ZEAMX (Corn, Field); 0.2500 kg/ha
  Preemergence herbicidal rating ZEAMX: 9.0
[4]; rate 0.0156 kg/ha
  Herbicidal rating CHEAL: 4.0
[4]; rate 0.0313 kg/ha
  Herbicidal rating CHEAL: 9.0
[4]; rate 0.0625 kg/ha
  Herbicidal rating CHEAL: 9.0
GALAP (Galium); 0.0156 kg/ha
  Preemergence herbicidal rating GALAP: 0.0
GALAP (Galium); 0.0313 kg/ha
  Preemergence herbicidal rating GALAP: 0.0
GALAP (Galium); 0.0625 kg/ha
  Preemergence herbicidal rating GALAP: 0.0
GALAP (Galium); 0.1250 kg/ha
  Preemergence herbicidal rating GALAP: 0.0
GALAP (Galium); 0.2500 kg/ha
  Preemergence herbicidal rating GALAP: 3.0
ECHCG (Barnyardgrass); rate 0.0156 kg/ha
  Herbicidal rating ECHCG: 1.0
ECHCG (Barnyardgrass); rate 0.0313 kg/ha
  Herbicidal rating ECHCG: 1.0
ECHCG (Barnyardgrass); rate 0.0625 kg/ha
  Herbicidal rating ECHCG: 1.0
[5]; 0.0156 kg/ha
  Preemergence herbicidal rating GLXMAW: 1.0
[5]; 0.0313 kg/ha
  Preemergence herbicidal rating GLXMAW: 4.0
[5]; 0.0625 kg/ha
  Preemergence herbicidal rating GLXMAW: 4.0
[5]; 0.1250 kg/ha
  Preemergence herbicidal rating GLXMAW: 5.0
[5]; 0.2500 kg/ha
  Preemergence herbicidal rating GLXMAW: 8.0
ORYSAT (Rice, Tebonnet) [6]; 0.0156 kg/ha
  Preemergence herbicidal rating ORYSAT: 0.0
ORYSAT (Rice, Tebonnet) [6]; 0.0313 kg/ha
  Preemergence herbicidal rating ORYSAT: 0.0
ORYSAT (Rice, Tebonnet) [6]; 0.0625 kg/ha
  Preemergence herbicidal rating ORYSAT: 6.0
ORYSAT (Rice, Tebonnet) [6]; 0.1250 kg/ha
  Preemergence herbicidal rating ORYSAT: 7.0
ORYSAT (Rice, Tebonnet) [6]; 0.2500 kg/ha
  Preemergence herbicidal rating ORYSAT: 9.0
CASOB (Sicklepod); rate 0.0156 kg/ha
  Herbicidal rating CASOB: 0.0
CASOB (Sicklepod); rate 0.0313 kg/ha
  Herbicidal rating CASOB: 0.0
CASOB (Sicklepod); rate 0.0625 kg/ha
  Herbicidal rating CASOB: 1.0
MOOVA (Monochoria); 0.0313 kg/ha
  herbicidal effect rating, MOOVA: 9.0
MOOVA (Monochoria); 0.0625 kg/ha
  herbicidal effect rating, MOOVA: 9.0
MOOVA (Monochoria); 0.1250 kg/ha
  herbicidal effect rating, MOOVA: 9.0
MOOVA (Monochoria); 0.2500 kg/ha
  herbicidal effect rating, MOOVA: 9.0

## COCCCN1C(=O)CSC1=Nc1cc(-n2c(=O)cc(C(F)(F)F)n(C)c2=O)c(F)cc1Cl [Compound 172, 3-{4-Chloro-2-fluoro-5-{[3-(3-methoxypropyl)-4-oxo-2-thiazolidinylidene]amino}phenyl}-1-methyl-6-(trifluoromethyl)-2,4(1H, 3H)-pyrimidinedione]
CYPIR (Rice Flatsedge); 0.0313 kg/ha
  herbicidal effect rating, CYPIR: 5.0
CYPIR (Rice Flatsedge); 0.0625 kg/ha
  herbicidal effect rating, CYPIR: 7.0
CYPIR (Rice Flatsedge); 0.1250 kg/ha
  herbicidal effect rating, CYPIR: 8.0
CYPIR (Rice Flatsedge); 0.2500 kg/ha
  herbicidal effect rating, CYPIR: 9.0
[1]; 0.0156 kg/ha
  Preemergence herbicidal rating TRZAWR: 2.0
[1]; 0.0313 kg/ha
  Preemergence herbicidal rating TRZAWR: 3.0
[1]; 0.0625 kg/ha
  Preemergence herbicidal rating TRZAWR: 7.0
[1]; 0.1250 kg/ha
  Preemergence herbicidal rating TRZAWR: 7.0
[1]; 0.2500 kg/ha
  Preemergence herbicidal rating TRZAWR: 9.0
ORYSAT (Rice, Tebonnet) [2]; Rate 0.0313 kg/ha
  Postemergence herbicidal rating ORYSAT: 3.5
ORYSAT (Rice, Tebonnet) [2]; Rate 0.0625 kg/ha
  Postemergence herbicidal rating ORYSAT: 4.0
ORYSAT (Rice, Tebonnet) [2]; rate 0.0156 kg/ha
  Postemergence herbicidal rating ORYSAT: 3.5
[3]; 0.0313 kg/ha
  herbicidal effect rating, SAGPY: 6.0
[3]; 0.0625 kg/ha
  herbicidal effect rating, SAGPY: 6.0
[3]; 0.1250 kg/ha
  herbicidal effect rating, SAGPY: 9.0
[3]; 0.2500 kg/ha
  herbicidal effect rating, SAGPY: 9.0
SETVI (Foxtail, Green); 0.0156 kg/ha
  Preemergence herbicidal rating SETVI: 5.0
SETVI (Foxtail, Green); 0.0313 kg/ha
  Preemergence herbicidal rating SETVI: 7.0
SETVI (Foxtail, Green); 0.0625 kg/ha
  Preemergence herbicidal rating SETVI: 9.0
SETVI (Foxtail, Green); 0.1250 kg/ha
  Preemergence herbicidal rating SETVI: 9.0
SETVI (Foxtail, Green); 0.2500 kg/ha
  Preemergence herbicidal rating SETVI: 9.0
ZEAMX (Corn, Field); 0.0156 kg/ha
  Preemergence herbicidal rating ZEAMX: 4.0
ZEAMX (Corn, Field); 0.0313 kg/ha
  Preemergence herbicidal rating ZEAMX: 7.0
ZEAMX (Corn, Field); 0.0625 kg/ha
  Preemergence herbicidal rating ZEAMX: 8.0
ZEAMX (Corn, Field); 0.1250 kg/ha
  Preemergence herbicidal rating ZEAMX: 9.0
ZEAMX (Corn, Field); 0.2500 kg/ha
  Preemergence herbicidal rating ZEAMX: 9.0
[4]; Rate 0.0313 kg/ha
  Postemergence herbicidal rating CHEAL: 9.0
[4]; Rate 0.0625 kg/ha
  Postemergence herbicidal rating CHEAL: 9.0
[4]; rate 0.0156 kg/ha
  Postemergence herbicidal rating CHEAL: 6.0
GALAP (Galium); 0.0156 kg/ha
  Preemergence herbicidal rating GALAP: 0.0
GALAP (Galium); 0.0313 kg/ha
  Preemergence herbicidal rating GALAP: 0.0
GALAP (Galium); 0.0625 kg/ha
  Preemergence herbicidal rating GALAP: 5.0
GALAP (Galium); 0.1250 kg/ha
  Preemergence herbicidal rating GALAP: 7.0
GALAP (Galium); 0.2500 kg/ha
  Preemergence herbicidal rating GALAP: 9.0
ECHCG (Barnyardgrass); Rate 0.0313 kg/ha
  Postemergence herbicidal rating ECHCG: 3.0
ECHCG (Barnyardgrass); Rate 0.0625 kg/ha
  Postemergence herbicidal rating ECHCG: 3.0
ECHCG (Barnyardgrass); rate 0.0156 kg/ha
  Postemergence herbicidal rating ECHCG: 2.0
[5]; 0.0156 kg/ha
  Preemergence herbicidal rating GLXMAW: 1.0
[5]; 0.0313 kg/ha
  Preemergence herbicidal rating GLXMAW: 2.0
[5]; 0.0625 kg/ha
  Preemergence herbicidal rating GLXMAW: 7.0
[5]; 0.1250 kg/ha
  Preemergence herbicidal rating GLXMAW: 9.0
[5]; 0.2500 kg/ha
  Preemergence herbicidal rating GLXMAW: 9.0
ORYSAT (Rice, Tebonnet) [6]; 0.0156 kg/ha
  Preemergence herbicidal rating ORYSAT: 2.0
ORYSAT (Rice, Tebonnet) [6]; 0.0313 kg/ha
  Preemergence herbicidal rating ORYSAT: 5.0
ORYSAT (Rice, Tebonnet) [6]; 0.0625 kg/ha
  Preemergence herbicidal rating ORYSAT: 7.0
ORYSAT (Rice, Tebonnet) [6]; 0.1250 kg/ha
  Preemergence herbicidal rating ORYSAT: 7.0
ORYSAT (Rice, Tebonnet) [6]; 0.2500 kg/ha
  Preemergence herbicidal rating ORYSAT: 8.0
CASOB (Sicklepod); Rate 0.0313 kg/ha
  Postemergence herbicidal rating CASOB: 2.0
CASOB (Sicklepod); Rate 0.0625 kg/ha
  Postemergence herbicidal rating CASOB: 2.0
CASOB (Sicklepod); rate 0.0156 kg/ha
  Postemergence herbicidal rating CASOB: 1.0
MOOVA (Monochoria); 0.0313 kg/ha
  herbicidal effect rating, MOOVA: 9.0
MOOVA (Monochoria); 0.0625 kg/ha
  herbicidal effect rating, MOOVA: 9.0
MOOVA (Monochoria); 0.1250 kg/ha
  herbicidal effect rating, MOOVA: 9.0
MOOVA (Monochoria); 0.2500 kg/ha
  herbicidal effect rating, MOOVA: 9.0
